Data reported in patent US8980908B2, “Non-peptidyl, potent, and selective mu opioid receptor antagonists and their use in treating opioid addiction and opioid induced constipation” (Virginia Commonwealth University, priority 2009, dated 2015).
Several values for one entry are separate records, joined by “and”; a condition that tells them apart may be missing. Equal entries are not always repeated. Where two headings read alike, the source gives them in different places.

Legend:
[1] = system: morphine antinociception in mice; experiment: Warm-water tail immersion test, blockade of morphine antinociception (Example 2); assay type: in vivo, mouse (Swiss Webster); conditions: s.c., 5 min before morphine 10 mg/kg s.c.; 56 °C
[2] = system: morphine antinociceptive effect in mice; conditions: antagonizing morphine 10 mg/kg; s.c.; cited from earlier work
DOR [3] = biological target: DOR (UniProt P41143); assay type: binding; parameters: Ki δ; four experiments; other: three experiments; other: SNC80 5 μM; Ki δ
DOR [4] = biological target: DOR (UniProt P41143); experiment: DOR [35S]GTPγS binding assay (Example 5); assay type: biochemical; parameters: Ki δ; four experiments; other: three experiments; other: SNC80 5 μM; Ki δ
Experimental: (§1) The KOR full agonist 2-(3,4-dichlorophenyl)-N-methyl-N-[(1R,2R)-2-pyrrolidin-1-ylcyclohexyl]acetamide 17 (U50,488)41 and DOR full agonist 4-[(R)-[(2S,5R)-4-allyl-2,5-dimethylpiperazin-1-yl](3-methoxyphenyl)methyl]-N,N-diethylbenzamide 18 (SNC80)42 were included in the assays as reference compounds for a maximal effect at the KOR and the DOR, respectively.
(§2) The radioligand binding assay and the [^35S]GTPγS binding assay were conducted using monoclonal OR-expressed Chinese hamster ovarian (CHO) cell lines as described previously.^22,29,36,37 Briefly, for the competition binding assay, [^3H]NLX, [^3H]DPN, and [^3H]NTI were used to label the MOR, the KOR, and the DOR, respectively. Aliquots of a membrane protein (30 μg) were incubated with the corresponding radioligand in the presence of different concentrations of the ligand under investigation in TME buffer (50 mM Tris, 3 mM MgCl2, 0.2 mM EGTA, pH 7.7) at 30° C. for 1.5 h. The bound radioactive ligand was separated from the free radioligand by filtration using the Brandel harvester (Biomedical Research & Development Laboratories, MD). […] The potency of the drugs in displacing the specific binding of the radioligand was determined by linear regression analysis of Hill plots. […] The [^35S]GTPγS functional assays were conducted in the same cell membranes used for the receptor binding assays. Membrane proteins (10 μg) were incubated with varying concentrations of compounds, GDP (10 μM) and 0.1 nM [^35S]GTPγS in assay buffer (50 mM Tris, 3 mM MgCl2, 100 mM NaCl, 0.2 mM EGTA, pH 7.7) for 1.5 h at 30° C. Nonspecific binding was determined with 20 μM unlabeled GTPγS.

MOR [5] = biological target: T1, MOR (Mus musculus, UniProt P42866); experiment: [35S]GTPγS functional assay (Example 1); assay type: biochemical; parameters: expressed in transfected cells; host or cells: CHO (Chinese hamster ovary) cell line, membrane preparation
KOR [6] = biological target: T2, KOR (Homo sapiens, UniProt P41145); experiment: Competitive radioligand binding, [3H]diprenorphine, OR-expressed CHO membranes (Examples 5 and 6)
T2 construct: expressed in transfected cells; host or cells: CHO (Chinese hamster ovary) cell line, membrane preparation

KOR [7] = biological target: T2, KOR; experiment: KOR [35S]GTPγS binding assay (Example 5); assay type: biochemical; conditions: for Emax: read-out: KOR [35S]GTPγS Binding % Emax of U50,488
Experimental: as §1, §2

MOR [8] = biological target: T1, MOR; experiment: biochemical; conditions: read-out: MOR [35S]GTPγS Binding % Emax of DAMGO
[9] = system: morphine antinociceptive effect in mice; experiment: Warm-water tail immersion assay, antagonism of morphine antinociception (Example 5); assay type: in vivo, mouse (Swiss-Webster); conditions: antagonizing morphine 10 mg/kg; s.c.
MOR [10] = biological target: T1, MOR; conditions: [35S]GTPγS assays
MOR [11] = biological target: T1, MOR; experiment: Competitive radioligand binding, [3H]naloxone, OR-expressed CHO membranes (Examples 5 and 6); parameters: expressed in transfected cells; host or cells: CHO (Chinese hamster ovary) cell line, membrane preparation; conditions: Table 8; Ki ratio
MOR [12] = biological target: T1, MOR; experiment: 35S-GTP[γS]-binding functional assay in MOR expressing CHO cells (Example 2); assay type: biochemical; parameters: expressed in transfected cells; host or cells: CHO (Chinese hamster ovary) cell line, membrane preparation
Experimental: Furthermore, these systems express the receptor at high density to provide optimal signal-to-noise ratios in the radioligand and ^35S-GTP[γS] binding assays.
Aliquots of a membrane preparation were incubated with the radioligands in the presence of different concentrations of the drug under investigation at 30° C. for 1 h. […] The potency of the drugs in displacing the specific binding of the radioligand was determined from data using linear regression analysis of Hill plots. The IC50 values will then be determined and corrected to K1 values using the Cheng-Prusoff equation. Functional assays, including ^35S-GTP[γS]-binding assay were conducted in the same cell membranes used for the receptor binding assays.

[13] = biological target: mu, delta and kappa opioid receptors; conditions: cited from earlier work
patients with OIC = conditions: cited from earlier work
[14] = system: chronic morphine-exposed mice; experiment: Opioid withdrawal assays in morphine-pelleted mice; conditions: naltrexone 1 mg/kg, counted over 20 minutes
[15] = read-out: Ki δ; Table 8 (NAQ analogues); four experiments
[16] = read-out: DOR [35S]GTPγS Binding EC50; three experiments

Compound: 17-Cyclopropylmethyl-3,14β-dihydroxy-4,5α-epoxy-6α-[(3′-isoquinolyl)acetamido]morphinan [Compound 9]
- AD50 value for blockade of morphine antinociception [1]: 0.456 (0.277 to 0.789) mg/kg (95% C.L.)
- AD50 values (data taken from Li, et al.) [2]: 0.45 (0.27-0.78) mg/kg (95% CL)
- Ki (DOR [3]; Table 8 (NAQ analogues); four experiments; read-out: Ki δ): 162 ± 15 nM
- Ki (DOR [3]; Table 12 (Example 6); read-out: Ki δ): 162 ± 15 nM
- DOR [35S]GTPγS Binding % Emax of SNC80 (DOR [4]; SNC80 5 μM): 53.5 ± 5.4%
- EC50 (DOR [4]; three experiments; read-out: DOR [35S]GTPγS Binding EC50): 98.6 ± 23.7 nM

Compound: C[C@@H](O)[C@H](NC(=O)[C@H]1NC(=O)[C@H]([C@@H](C)O)NC(=O)[C@H](CCCNC(=N)N)NC(=O)[C@@H](Cc2c[nH]c3ccccc23)NC(=O)[C@H](Cc2ccc(O)cc2)NC(=O)[C@@H](NC(=O)[C@H](N)Cc2ccccc2)CSSC1(C)C)C(N)=O [CTAP, D-Phe-Cys-Tyr-D-Trp-Arg-Thr-Pen-Thr-NH2]
- Percent Max of DAMGO (MOR [5]; Emax of compound vs Emax of DAMGO (normalized to 100%)): 0.00%

Compound: COc1c(C(=O)N[C@H]2CC[C@@]3(O)[C@H]4Cc5ccc(O)c6c5[C@@]3(CCN4CC3CC3)[C@H]2O6)nc(Cl)c2ccccc12 [Compound 4, 17-Cyclopropylmethyl-3,14β-dihydroxy-4,5α-epoxy-6α-(1-chloro-4-methoxyisoquinoline-3-carboxamido)morphinan]
- Ki (KOR [6]): 22.2 ± 2.1 nM
- EC50 (KOR [7]): 26.4 ± 3.9 nM
- Emax (KOR [7]): 7.1 ± 0.5%
- Emax (MOR [8]): 51 ± 0.4%
- Ki (DOR [3]; [15]): 33.9 ± 0.5 nM
- DOR [35S]GTPγS Binding % Emax of SNC80 (DOR [4]; SNC80 5 μM): 54.8 ± 0.1%
- EC50 (DOR [4]; [16]): 32.6 ± 5.1 nM

Compound: O=C(N[C@H]1CC[C@@]2(O)[C@H]3Cc4ccc(O)c5c4[C@@]2(CCN3CC2CC2)[C@H]1O5)c1cc2cc([N+](=O)[O-])ccc2cn1 [Compound 11, 17-Cyclopropylmethyl-3,14β-dihydroxy-4,5α-epoxy-6α-(6-nitroisoquinoline-3-carboxamido)morphinan]
- Ki (KOR [6]): 27.9 ± 2 nM
- EC50 (KOR [7]): 62.6 ± 10.4 nM
- Emax (KOR [7]): 21.1 ± 0.4%
- AD50 values [9]: 0.92 (0.51-1.67) mg/kg (95% CL)
- Functional Selectivity δ/μ (MOR [10]): 3.4
- Functional Selectivity κ/μ (MOR [10]): 2.0
- Emax (MOR [8]): 12.5 ± 1.4%
- Ki (DOR [3]; [15]): 94.7 ± 1.1 nM
- DOR [35S]GTPγS Binding % Emax of SNC80 (DOR [4]; SNC80 5 μM): 67.7 ± 2.0%
- EC50 (DOR [4]; [16]): 108.1 ± 0.8 nM
- Selectivity δ/μ (MOR [11]): 16
- Selectivity κ/μ (MOR [11]): 4.9

Compound: C[C@@H](NC(=O)[C@@H](N)Cc1ccc(O)cc1)C(=O)NCC(=O)N(C)[C@@H](Cc1ccccc1)C(=O)NCCO [DAMGO, reference compound]
- Emax (MOR [5]; DAMGO reference): 366±23 % stimulation over basal
- Emax (% Stim) (MOR [12]; n=3): 366.5 ± 23.0 % Stim
- Percent Max of DAMGO (MOR [12]; normalized to full agonist DAMGO (3 μM)): 100.0 ± 6.2%

Compound: C[N@+]1(CC2CC2)CC[C@]23c4c5ccc(O)c4O[C@H]2C(=O)CC[C@@]3(O)[C@H]1C5 [MNTX, methylnaltrexone]
- Ki value ratio delta/mu [13]: ≈ 24
- Ki value ratio kappa/mu [13]: 10
- efficiency to induce SBM (patients with OIC; human, in vivo): ≤ 62%
- patients with laxation within 4 hours after the first dose (patients with OIC; two major clinical trials, subcutaneous): 48% and 62%

Compound: O=C1CC[C@@]2(O)[C@H]3Cc4ccc(O)c5c4[C@@]2(CCN3CC2CC2)[C@H]1O5 [Naltrexone]
- AD50 values [9]: 0.006 (0.003-0.014) mg/kg (95% CL)
- escape jumps [14]: 30.0±12.1
- wet-dog shakes [14]: 14.8±2.2

Compound: COc1cccc2c1[C@]13CCN(CC4CC4)[C@H](C2)[C@]1(OC)CCC(=O)C3 [cyprodime]
- Ki value ratio delta/mu [13]: ≈ 40
- Ki value ratio kappa/mu [13]: ≈ 45
